Data set [1] concerns HeLa cells. The data set can be described thus: MTT cytotoxicity assay. Type of data set: cell-based. The settings on record: 10 ppm; cells treated with AuHNRs-DTPP and laser. The procedure: The in vitro cytotoxicity of AuHNRs-DTPP nanocarrier against HeLa cells were studied by standard MTT assay. In brief, HeLa cells were seeded on 96-well plates with a density of 5000 cells per well. When the cell density came to 80%, the medium was removed and various concentrations of AuHNRs-DTPP nanocarrier in DMEM with 10% FBS were added. After incubation for 6 h, the medium was replaced by 200 μL of fresh medium. For none-treated group or single laser treated group, cells received corresponding treatment and then further incubated for 48 h. And for combined treatment group, cells received 1064 nm laser irradiation and incubated for 2 h. After that, cells received laser irradiation (633 nm) and then further incubated for 48 h. Then, the standard MTT assay was conducted to determine the cell viability. And for COS-7, same operation process was taken.

Data set [2] in a line: Solubility of DTPP. Format: physicochemical.
Data set [3] can be described thus: Fluorescence, ROS and singlet oxygen generation, cell-free.
In data set [4] the test system is H22 tumor. The data set can be described thus: In vivo fluorescence imaging. The note with it: tumor bearing mice; i.v.; before laser irradiation, within 8 h. The procedure:
Animal experiments were conducted based on the guidelines for laboratory animals established by the Huazhong Agricultural University. In vivo imaging started when tumor volume approximated 200 mm^3. For photothermal imaging 200 μL AuHNRs-DTPP was intravenously injected into the mice, and the equal volume of PBS buffer was taken as the control. Infrared thermal images were recorded by using a FLIR E85 camera under 1064 nm laser irradiation at a power density of 0.69 W·cm^-2. In vivo fluorescence imaging was collected by a Maestro in vivo imaging system. The tumor bearing mice were intravenously administrated with 200 μL AuHNRs-DTPP (1 g·L^-1) or free DTPP (30 mg·L^-1) solution. Then the mice were anesthetized and imaged at pre-set time. It should be noted that mice received 1064 nm laser irradiation (10 min, 0.69 W·cm^-2) at the 8th h post-injection.

As to `O=C1O[C@H]([C@@H](O)CO)C(O)=C1O` [Vitamin C], in data set [1], the “effect on cell viability as ROS scavenger” value is “significantly improve the cell viability”.

Regarding PpIX-PEG8-GGK(TPP)GRDEVDGC [DTPP], the “solubility in DI water” value in data set [2] (DI water) was “almost insoluble”. Further, the “solubility in PBS” value in data set [2] (PBS) is given as “good solubility”. For the same compound, the “singlet oxygen ESR signal” value was “obvious ESR signal” in data set [3] (treated with laser) and “no ESR signal” in data set [3] (without laser irradiation). For the same compound, the “in vivo fluorescence signal” value in data set [4] was “fluorescence signal appeared all over the body”.

Values taken from article PMC6691385, “Au Hollow Nanorods-Chimeric Peptide Nanocarrier for NIR-II Photothermal Therapy and Real-time Apoptosis Imaging for Tumor Theranostics” (Theranostics, 2019).
